Measured values as given in US7442801B2, “Pyrazole compound” (Sumitomo Chemical Company, Limited, priority 2003, dated 2008).

Test system: Tetranychus urticae
Experiment: Test Example 1: Controlling Rate against Tetranychus urticae on brush bean, spray
Type: in vivo
Conditions: 500 ppm, 30 ml sprayed on brush bean (Phaseolus vulgaris) with female adults
Method: Each of the present compounds (2) to (15), (17) to (33), (36) to (40) and the comparative compound described below was formulated according to Formulation Example 5, and each formulations was diluted with water so that the concentration of the present compound or the comparative compound came to 500 ppm.
About twenty female adults of Tetranychus urticae were set free on brush bean (Phaseolus vulgaris) in the primary leaf stage, which had been potted in a plastic cup for 7 days after the seeding. After 1 day, a 30 ml of the diluted formulation described-above was sprayed over the plant. On the 8th and 13th day after the application, the numbers of lived Tetranychus urticae on the leaf of brush bean plant were examined, and the Controlling Rates were calculated by the following scheme. Controlling Rate=100×{1−(a number of lived Tetranychus urticae in the treatment)/(a number of lived Tetranychus urticae in the non-treatment)}

In the case of Cc1nn(C)c(Oc2ccc(Oc3ccc(C(F)(F)F)cc3)cc2)c1C=NOCc1ccccc1 [comparative compound], the “Controlling Rate” value (8th day after the application) is reported as “less than 30%” and the “Controlling Rate” value (13th day after the application) is reported as “less than 30%”.
